Data from BindingDB's records for patent US11542283 (Jiangsu Chia Tai Fenghai Pharmaceutical, 2023).

Biological target: T1, Proteasome subunit beta type-5 (Homo sapiens, UniProt P28074)
T1 sequence (P28074 whole entry): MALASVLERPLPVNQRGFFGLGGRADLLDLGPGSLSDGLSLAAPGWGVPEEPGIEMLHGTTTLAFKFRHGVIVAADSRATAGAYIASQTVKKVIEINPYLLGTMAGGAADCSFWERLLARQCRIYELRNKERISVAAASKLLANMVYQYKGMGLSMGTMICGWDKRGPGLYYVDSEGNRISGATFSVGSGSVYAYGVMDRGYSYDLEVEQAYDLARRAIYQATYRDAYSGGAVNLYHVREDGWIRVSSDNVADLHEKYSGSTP
Experiment: Proteasome Inhibitory Activity
Text: The proteasome used in the present invention is human erythrocyte 20S proteasome, and the enzyme, fluorescent substrate and test buffer are all purchased from Enzo.

SMILES | IC50 [nM]
CSC[C@H](NC(=O)c1cc(Cl)ccc1Cl)C(=O)N[C@@H](CC(C)C)B(O)O [US11542283, Compound IV-9] | 4.86
CC(C)C[C@H](NC(=O)CNC(=O)c1cc(Cl)ccc1Cl)B1OC(=O)CC(CC(=O)O)(C(=O)O)O1 (some centres not stated) [US11542283, Compound MLN-9708] | 7.47
